# Measurements from ChEMBL document CHEMBL1138892, “Synthesis of Hsp90 dimerization modulators” (Bioorg Med Chem Lett, 2006).
# Molecular target: Heat shock protein HSP90 (Homo sapiens, UniProt P07900+P08238)
# Description: Displacement of GM-BODIPY from Hsp90
row,EC50,Structure (SMILES)
1,91 nM,COC1=C2C[C@@H](C)C[C@H](OC)[C@H](O)[C@@H](C)/C=C(\C)[C@H](OC(N)=O)[C@@H](OC)/C=C\C=C(/C)C(=O)NC(=C(NCCCCNC3=C4NC(=O)/C(C)=C/C=C\[C@H](OC)[C@@H](OC(N)=O)/C(C)=C/[C@H](C)[C@@H](O)[C@@H](OC)C[C@H](C)CC(=C(OC)C3=O)C4=O)C1=O)C2=O
2,465 nM,COC1=C2C[C@@H](C)C[C@H](OC)[C@H](O)[C@@H](C)/C=C(\C)[C@H](OC(N)=O)[C@@H](OC)/C=C\C=C(/C)C(=O)NC(=C(NCCCCCCCCCNC3=C4NC(=O)/C(C)=C/C=C\[C@H](OC)[C@@H](OC(N)=O)/C(C)=C/[C@H](C)[C@@H](O)[C@@H](OC)C[C@H](C)CC(=C(OC)C3=O)C4=O)C1=O)C2=O
3,345 nM,COC1=C2C[C@@H](C)C[C@H](OC)[C@H](O)[C@@H](C)/C=C(\C)[C@H](OC(N)=O)[C@@H](OC)/C=C\C=C(/C)C(=O)NC(=C(NC/C=C\CNC3=C4NC(=O)/C(C)=C/C=C\[C@H](OC)[C@@H](OC(N)=O)/C(C)=C/[C@H](C)[C@@H](O)[C@@H](OC)C[C@H](C)CC(=C(OC)C3=O)C4=O)C1=O)C2=O
4,45 nM,COC1=C2C[C@@H](C)C[C@H](OC)[C@H](O)[C@@H](C)/C=C(\C)[C@H](OC(N)=O)[C@@H](OC)/C=C\C=C(/C)C(=O)NC(=C(NC/C=C/CNC3=C4NC(=O)/C(C)=C/C=C\[C@H](OC)[C@@H](OC(N)=O)/C(C)=C/[C@H](C)[C@@H](O)[C@@H](OC)C[C@H](C)CC(=C(OC)C3=O)C4=O)C1=O)C2=O
